In patent US20110172301A1, “Use of anti-oxidant compounds for muscle recovery” (DSM IP ASSETS B.V., priority 2004, published 2011):

What was measured:
[1] = ONOOH scavenging (protection against ONOOH induced DHR-123 oxidation); assay type: biochemical; settings: 50% inhibition of oxidation of DHR-123; 5 μM DHR-123, 0.7 μM ONOOH, pH 7.4, 37° C., n = 3; read-out: ONOO− scavenging activity, IC50 ± SEM
Experimental: The protection against ONOOH induced DHR-123 oxidation of the compounds was measured as described by Kooy et al (Peroxynitrite-mediated oxidation of dihydrorhodamine 123. Free Radic Biol Med, 16; 149-56). In short, 5 μM DHR-123 and various concentrations of a scavenger were incubated in 100 mM sodium phosphate buffer (pH 7.4) at 37° C. Subsequently, ONOOH was added by pipetting a 10 μl aliquot into the tube while rapid vortexing, reaching a final concentration of 0.7 μM. Fluorescence measurements were performed with excitation and emission wavelengths of respectively 500 and 536 nm. The effects are expressed as the concentration of the scavenger giving 50% inhibition of the oxidation of DHR-123 (IC50).

[2] = O2•- scavenging (xanthine/xanthine oxidase, NBT reduction); assay type: biochemical; settings: 50% decrease in the reduction of NBT; xanthine 150 μM, XO 5.5 mU/ml, pH 7.8, 37° C., n = 3; read-out: O2•− scavenging activity, IC50 ± SEM
Experimental: O2•- were generated by the reaction of xanthine (150 μM) and xanthine oxidase (XO) (5.5 mU/ml) in 50 mM potassium phosphate buffer (pH 7.8). O2•-radicals were detected by nitroblue tetrazolium (NBT, 50 μM). NBT undergoes reduction by O2•- to its formazan. The rate of this reduction was monitored spectrophotometrically at 560 nm during 2 minutes. Various concentrations of a scavenger were added and incubated at 37° C. The reaction was started by the addition of XO. The O2•-scavenging potential is expressed as the concentration of the scavenger giving a 50% decrease in the reduction of NBT (IC50).
To adjust for a possible inhibitory effect of the scavenger on the activity of XO, the highest concentration of the scavenger was incubated at 37° C. and subsequently the rate of the urate formation was measured at 293 nm during 2 minutes.

diaphragm muscle strips = assay: Organ bath experiments: force of diaphragm strips after H2O2 incubation; set-up: species or system Male Lewis rats; settings: all applied stimulation frequencies, compared with control; FIG. 1
Excerpt: Male Lewis rats (age between 12 and 14 weeks old) were used. After decapitation, the diaphragm was rapidly excised, and small strips (around 2 mm width and 1 cm long) were cut and subsequently mounted in thermostated organ baths, containing Krebs buffer gassed with a mixture of 95% O2 and 5% CO2, pH 7.4. Each diaphragm strip was connected vertically to an isometric transducer. The composition of the Krebs buffer was (mM): NaCl (117.5), KCl (5.6), MgSO4 (1.18), CaCl2 (2.5), NaHPO4 (1.28), NaHCO3 (25) and glucose (5.5). During the experiment, the buffer was changed every 15 minutes. Field stimulation was created along the entire length of each muscle strip with platinum electrodes. At the beginning of the experiment, the strips were washed during 45 minutes at room temperature to minimize temperature dependent deterioration. Thereafter, the water bath was turned on at 37° C. (15 minutes before the start of the experiments). […] First the Pt (twitch tension at a stimulation of 1 Hz) and Po (maximal specific tension at a stimulation of 100 Hz, 250 ms duration) were determined. Thereafter, the response of the diaphragm muscle strips to increasing stimulus frequencies was assessed at Lo by the application of 10, 20, 33, 50 and 100 Hz-pulses applied in 250 ms trains. […] After that were again determined: Pt, Po, force-frequency and fatigue.

| Compound | IC50 [1] | IC50 [2] | effect on muscle force (diaphragm muscle strips) |
| --- | --- | --- | --- |
| O=C(O)CCCC[C@@H]1CCSS1 (racemic) [Lipoic acid, reference compound] | > 200 µM | > 100 µM |  |
| OO [H2O2, hydrogen peroxide] |  |  | dose-dependently reduces the force |
| COc1cc(CCO)ccc1O [Homovanillic alcohol] | 6.6 ± 0.2 µM | > 200 µM |  |
| OCCc1ccc(O)cc1 [Tyrosol] | 99 ± 16 µM | > 200 µM |  |
